System: axillary sweating
Assay: Placebo-controlled blinded clinical study, gravimetric sweat measurement (Examples 5-10)
Assay type: in vivo, human
Details: for percent of subjects with at least a 30% reduction in sweat production vs Baseline / average reduction in sweat production by gravimetric sweat measurement: two weeks after single topical treatment; for average reduction in sweat production by gravimetric sweat measurement: 0.3 mL/axilla; for greater reduction in sweat production than control (placebo) group / greater effectiveness in reducing sweat production than placebo (responder rate): two weeks after treatment; for greater reduction in sweat production than control (placebo) group: placebo 53 mg; for greater effectiveness in reducing sweat production than placebo (responder rate): placebo 29% responders
Source text: (§1) The purpose of the study was to determine if Emulsion H is biologically active in reducing sweating. […] Some subjects received treatment with the potentially biologically active formulation and some subjects received treatment with a placebo, i.e. water. Neither the subject nor the investigator knew which treatment the subject was receiving.
Two weeks after a single treatment, subjects were re-assessed by gravimetric sweat measurement to determine the degree of sweat reduction. A comparison of post-treatment sweat production between the treatment groups was made to determine the degree of sweat reduction by the potentially biologically active formulation.
The sweat production of the subject is measured gravimetrically by the following procedure: • The subject was placed in a room with relatively constant temperature and humidity for at least 30 min. • The subject was placed in a semi-reclining position with the axilla fully exposed and the arm resting comfortably above the head. • The subject's axilla was dried gently with a cotton gauze pad. • The investigator used a forceps to place one filter paper (90 mm diameter) on a balance sensitive to 0.1 mg and recorded its weight. • The investigator used a forceps to place the measured filter paper on the axilla, covered it with plastic and taped the edges of the bag against the subject's skin with hypoallergenic tape to form a seal around the plastic bag. • After 5 minutes, the investigator gently removed the tape and plastic from the subject's axilla and then, using forceps, immediately placed the filter paper onto the scale to record its weight. The scale was then dried and zero balanced. • This measurement was then repeated as described above with the other axilla.
If the subject was eligible for treatment on this basis, the subject was then treated. For treatment, one of the study preparations (0.3 mL/axilla) was applied topically with a gloved finger by the investigator to the subject's skin of the axilla. Emulsion H contained 19.2 mg Labrafac Lipophile WL 1349 and 28.8 mg Polysorbate 80, NF, in addition to 0.9% Sodium Chloride Irrigation, USP, and Gelatin Phosphate Buffer. The average diameter (e.g., particle size) of nanoparticles contained in the Emusion H empty nanoparticle composition was approximately 80.1 nm. The preparation was administered in small increments to avoid run-off. The liquid was rubbed-in until vanished.
The subject was scheduled for a follow-up office visit two weeks after the treatment. At the follow-up office visit, the subject was questioned as to their compliance with the instructions regarding which medications not to use between treatment and the two week follow-up office visit. If the subject was non-compliant, the subject was disqualified from the study. If the subject was compliant, the subject was re-assessed using the gravimetric sweat measurement procedure.
as §1, with “V” for “H”
If the subject was eligible for treatment on this basis, the subject was then treated. For treatment, one of the study preparations (0.3 mL/axilla) was applied topically with a gloved finger by the investigator to the subject's skin of the axilla. Emulsion V contained Emulsifying Wax, Gelatin Phosphate Buffer Solution, Isopropyl Myristate, Labrafac Lipophile, Methylparaben, Mineral Oil Heavy Viscosity Range, Polysorbate 80, Propylparaben, Purified Water, Sodium Chloride Injection, and White Petrolatum. All ingredients are either NF or USP grade. The average diameter (e.g., particle size) of nanoparticles contained in the Emusion V empty nanoparticle composition was approximately 77.1 nm. The preparation was administered in small increments to avoid run-off. […]

| Compound | percent of subjects with at least a 30% reduction in sweat production vs Baseline | average reduction in sweat production by gravimetric sweat measurement | greater reduction in sweat production than control (placebo) group | greater effectiveness in reducing sweat production than placebo (responder rate) |
| --- | --- | --- | --- | --- |
| CCCCCCCCCCCCCC(=O)OC(C)C [Isopropyl Myristate] | 55% | 103 mg | 195% | 191% |
| CCCOC(=O)c1ccc(O)cc1 [Propylparaben] | 70% | 177 mg | 337% | 245% |
| Polysorbate 80 | 80% | 159 mg | 300% | 280% |
